From US9677045B2, “Microorganisms and methods for production of 4-hydroxybutyrate, 1,4-butanediol and related compounds” (priority 2012, dated 2017)

T1: phosphotransbutyrylase (PTB) (Clostridium acetobutylicum, UniProt P58255)
T1 construct: made in house; host or cells: E. coli, plasmid pZA33-0020-0021, cell extract
T1 sequence (P58255 1-301): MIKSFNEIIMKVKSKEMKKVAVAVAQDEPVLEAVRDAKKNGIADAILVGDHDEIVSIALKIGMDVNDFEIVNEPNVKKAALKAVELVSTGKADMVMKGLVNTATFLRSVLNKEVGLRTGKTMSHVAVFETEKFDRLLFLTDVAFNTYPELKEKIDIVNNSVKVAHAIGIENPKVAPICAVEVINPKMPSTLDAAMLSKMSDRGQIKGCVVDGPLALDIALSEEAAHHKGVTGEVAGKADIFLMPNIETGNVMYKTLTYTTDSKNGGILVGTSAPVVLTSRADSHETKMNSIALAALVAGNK


Legend:
[1] = system: BCKA in Bacillus subtilis; settings: decarboxylation; cited from earlier work
[2] = biological target: T1, phosphotransbutyrylase (PTB); assay: PTB enzyme activity, butyryl-CoA to butyryl-phosphate (DTNB); type: biochemical; settings: extracts of cells with native ptb/bk operon (0020, 0021) in pZA33
Experimental: The enzyme activity of PTB is measured in the direction of butyryl-CoA to butyryl-phosphate as described in Cary et al. J. Bacteriol. 170:4613-4618 (1988). It provides inorganic phosphate for the conversion, and follows the increase in free CoA with the reagent 5,5′-dithiobis-(2-nitrobenzoic acid), or DTNB. DTNB rapidly reacts with thiol groups such as free CoA to release the yellow-colored 2-nitro-5-mercaptobenzoic acid (TNB), which absorbs at 412 nm with a molar extinction coefficient of 14,140 M cm^−1. The assay buffer contained 150 mM potassium phosphate at pH 7.4, 0.1 mM DTNB, and 0.2 mM butyryl-CoA, and the reaction was started by addition of 2 to 50 μL cell extract. The enzyme activity of BK is measured in the direction of butyrate to butyryl-phosphate formation at the expense of ATP. The procedure is similar to the assay for acetate kinase previously described Rose et al., J. Biol. Chem. 211:737-756 (1954). […] This assay links conversion of ATP to ADP by acetate kinase to the linked conversion of ADP and phosphoenolpyruvate (PEP) to ATP and pyruvate by pyruvate kinase, followed by the conversion of pyruvate and NADH to lactate and NAD+ by lactate dehydrogenase. […] The reaction was started by adding 2 to 50 μL cell extract, and the reaction was monitored based on the decrease in absorbance at 340 nm indicating NADH oxidation. […]

| Molecule | activity relative to other branched-chain substrates [1] [%] | specific activity of PTB [2] |
| --- | --- | --- |
| O=C(O)CCC(=O)C(=O)O [2-Oxoglutarate] | 5 | – |
| PTB: phosphotransbutyrylase from C. acetobutylicum (gene 0020) (protein, UniProt P58255 1-301, looked up) Phosphate butyryltransferase: MIKSFNEIIMKVKSKEMKKVAVAVAQDEPVLEAVRDAKKNGIADAILVGDHDEIVSIALKIGMDVNDFEIVNEPNVKKAALKAVELVSTGKADMVMKGLVNTATFLRSVLNKEVGLRTGKTMSHVAVFETEKFDRLLFLTDVAFNTYPELKEKIDIVNNSVKVAHAIGIENPKVAPICAVEVINPKMPSTLDAAMLSKMSDRGQIKGCVVDGPLALDIALSEEAAHHKGVTGEVAGKADIFLMPNIETGNVMYKTLTYTTDSKNGGILVGTSAPVVLTSRADSHETKMNSIALAALVAGNK | – | approximately 5 U/mg |
